Test results as given in patent US9283219B2, “Sublingual films” (Cynapsus Therapeutics, Inc., priority 2010, dated 2016).
Where a name gives a salt, the structure may show the parent alone.

Columns and labels:
[1] = Permeability studies, Franz diffusion cells; type: in vitro ADME; conditions: pig
Protocol: Freshly collected buccal tissues were obtained from pig and mucosa's were isolated carefully. The prepared mucosa membranes with approximate size of 4 cm^2 were mounted between donor and receiver chambers of Franz diffusion cells with available diffusion area of 1.77 cm^2. Test treatments and controls were run in quadruplicate. The receiver compartment, which contained a stirring bar, was filled with 8 mL of KRB buffer, pH 7.4 containing 1% BSA. The Franz cells were placed in a heating/stirring block. The temperature was set at 37° C. in order to maintain the tissue surface temperature at 32° C.; the stirring rate was set at 400 rpm. Two milliliters of formulated compound at different pHs was added to the donor chambers, completely covering the exposed mucosa. All dosing solutions contained 0.1% of sodium dithionite, 0.2% DMSO and 5% propylene glycol or glycerin. The donor compartment was covered with Parafilm to minimize evaporation. An aliquot (˜0.5 mL) was taken from the receiver compartment at 2, 60, 90, and 120 min and replaced with an equal volume of buffer warmed at 37° C. Sampling time points from donor compartment were 0, 60, 90 and 120 min. Samples were diluted with 0.5 mL (1:1) of 10% aq. ascorbic acid. The concentration of each analyte was quantified by LC-MS/MS (Appendix I). The whole study was done in dark with yellow light, and glass vials and syringes were used for sampling. […] Cd final is the concentration of the donor at the end of the incubation period (interval), μM.

[2] = cited from earlier work
[3] = subcutaneous injection, 0.5 mg/kg, literature value; cited from earlier work

SMILES: CN1CCc2cccc3c2[C@H]1Cc1ccc(O)c(O)c1-3 [apomorphine]
- Papp at 120 min ([1]; pH 6.4, pH 6.4): 0.071 ×10⁻⁶ cm/s
- Papp at 120 min ([1]; pH 6.8, pH 6.8): 0.054 ×10⁻⁶ cm/s
- Papp at 120 min ([1]; pH 7.4, pH 7.4): 0.185 ×10⁻⁶ cm/s
- Papp at 120 min ([1]; pH 8, pH 8.0): 0.556 ×10⁻⁶ cm/s
- Papp at 120 min ([1]; pH 8, pH 8.0 + 1% glycerin monostearate): 2.34 ×10⁻⁶ cm/s
- Papp at 120 min ([1]; pH 8, pH 8.0 + 1% magnesium stearate): 0.3 ×10⁻⁶ cm/s
- Papp at 120 min ([1]; pH 8, pH 8.0 + 1% tocopherol acetate): 0.98 ×10⁻⁶ cm/s
- adverse effects of intranasal administration ([2]; intranasal administration): transient nasal blockage, burning sensation and swollen nose and lips
- side effect of subcutaneous injection ([2]; subcutaneous injection): development of nodules, which often become infected
- adverse effects of sublingual tablets ([2]; sublingual administration of tablets, prolonged use): severe stomatitis on prolonged use with buccal mucosal ulceration in half the patients

SMILES: CN1CCc2cccc3c2[C@H]1Cc1ccc(O)c(O)c1-3 [sc inj, apomorphine hydrochloride]
- AUCinf [3]: 17828 ng·min/mL
- Cmax [3]: 331 ng/mL
- Tmax [3]: 25 min
